Source: patent US12351561B2, “Crystalline (2S,4R)-5-(5'-chloro-2'-fluoro-[1,1'-biphenyl]-4-yl)-2-(ethoxymethyl)-4-(3-hydroxyisoxazole-5-carboxamido)-2-methylpentanoic acid and uses thereof” (THERAVANCE BIOPHARMA R&D IP, LLC, priority 2016, dated 2025)

Legend:
NEP [1] = target: T1, NEP (Homo sapiens, UniProt P08473); test: Assay 3.1: NEP activity in human (cGMP), single-ascending dose study; assay type: in vivo
T1 construct: from tissue; host or cells: healthy human volunteers (in vivo)
Procedure: A Phase 1 single-ascending dose (SAD) clinical trial of Compound I′ (Form I), which converts to or dissolves to provide its soluble form Compound I in the body, was conducted in order to assess neprilysin inhibition for the treatment of a range of cardiovascular and renal diseases, including, e.g., chronic kidney disease, diabetic nephropathy, acute and chronic heart failure, heart failure with reduced ejection fraction, heart failure with preserved ejection fraction, post-myocardial infarction asymptomatic left ventricular dysfunction (post-MI asymptomatic LVD), subacute heart failure and resistant and isolated systolic hypertension. Safety and tolerability, pharmacokinetic (support for QD/BID dosing and non-renal excretion), pharmacodynamic (test for target engagement biomarkers cGMP and ANP), food effect, and absolute oral bioavailability and renal elimination using a ^14C intravenous microtracer, inter alia, were tested.
The Phase 1 study was a double-blind, randomized placebo-controlled single ascending dose study in healthy male and female volunteers randomized in a 4:1 ratio. The study enrolled 56 healthy volunteers over multiple weeks for the ascending-dose portion, which included cohorts (n=10/cohort of 8 active and 2 placebo) administered single ascending doses of 50 mg, 100 mg, 200 mg, 400 mg and 600 mg. A sixth cohort (n=6) was administered i.v. microtracer and oral doses of 10 μg and 100 mg, respectively.
One goal of this study was to determine the mechanism/duration of action of Compound I after dosing in humans.

[2] = Assay 1: IV/PO pharmacokinetic study in rats; assay type: in vivo, male Sprague-Dawley rats; details: rat; for AUC(0-t) / bioavailability: plasma; for AUC(0-t): read-out: AUClast Mean; for bioavailability: po
Procedure: (§1) Each rat, dog or monkey PK study began with formulation of the test compound. Appropriate masses of each test compound were added into a volume of vehicle (e.g. 5% sodium bicarbonate, 5% dextrose in H2O) such that the final concentration of each compound was appropriate to be dosed. Although a homogenous suspension were acceptable for oral dosing, intravenous dosing solutions were sterile-filtered (0.2 μm) prior to dosing to ensure no particulates were administered.
In the rat study, pre-cannulated male Sprague-Dawley rats (3 per route) were obtained from Harlan Laboratories or Charles Rivers Laboratories. Rats received either a oral dose delivered into the stomach using a syringe and gavage tube or a intravenous (via lateral tail vein) dose of the dosing solution. The final dose was 0.5 mg/kg. Serial blood samples were harvested via the cannula implanted in the jugular vein at 3 min, 15 min, 30 min, 1 h, 2 h, 4 h, 6 h, and 24 h post-dose. Sampling was performed either manually or using automated blood samplers. Samples were collected into microtainer tubes containing EDTA as the anticoagulant and were processed to plasma by refrigerated centrifugation.
(§2) Plasma concentrations of Compound I were determined by LC/MS/MS. Plasma study samples were vortexed and placed in a 96-well plate. The samples were extracted with 200 μL of acetonitrile with an internal standard. The extract was centrifuged for 10 minutes at 2809 RPM and 50 μL supernatant was mixed with 200 μL 0.2% formic acid in water. Samples (10-15 μL) were injected on a ThermoFisher HyPURITY™ (C18 50×2.1 mm) column with a flow rate of 0.35 mL/min. Mobile phase A consisted of water: acetonitrile: formic acid (95:5:0.1, v:v:v) and Mobile phase B consisted of methanol: acetonitrile: formic acid (50:50:0.1, v:v:v) (dog). Mobile phase A consisted of 0.2% formic acid in water and mobile phase B consisted of 0.2% formic acid in acetonitrile (rat and monkey). Pharmacokinetic parameters of Compound I were determined by non-compartmental analysis (Model 201 and Model 200 for IV and PO administration, respectively) using Phoenix WinNonlin Version 6.3 (Certara, Sunnyvale, CA) and using individual plasma concentration time profiles from 3 animals per treatment group.
(§3) Plasma clearance was determined from the intravenous arm of the study, and represents the rate at which plasma is cleared of drug. It is equal to the dose divided by the area under the plasma concentration-time curve. In addition to plasma clearance, it is also essential for an orally administered drug to reach efficacious systemic levels following oral delivery. Oral bioavailability is a measurement of plasma exposures following oral administration relative to exposures following intravenous administration.

NEP [3] = target: T1, NEP; test: Assay 4.1: NEP activity in human (cGMP), multiple-ascending dose study; assay type: in vivo; details: healthy adult and elderly subjects, 10-200 mg once daily, Day 14, over 24 h
Procedure: The Phase 1 study was a double-blind, randomized placebo-controlled multiple ascending dose study in healthy male and female volunteers randomized in a 4:1 ratio. The study enrolled 50 healthy adult (19-55 years old) and elderly (65-80 years old) volunteers over multiple weeks for the ascending-dose portion, which included cohorts (n=10/cohort of 8 active and 2 placebo) administered (1) ascending doses of 50 mg, 100 mg, and 200 mg, (2) a dose of 10 mg studied in parallel with 200 mg for PK/PK, and (3) a dose of 100 mg for one elderly cohort. […] Additionally, renal elimination of Compound I was neglible after multiple dosing, e.g., <1% was observed on Day 1 and Day 14 for all subjects.
Part of the MAD clinical studies was to determine the mechanism/duration of action of Compound I after dosing in humans.

[4] = Assay 1: IV/PO pharmacokinetic study in dogs; assay type: in vivo, male beagle dogs; details: dog; for bioavailability / AUC(0-t): plasma; for bioavailability: po; for AUC(0-t): read-out: AUClast Mean
Procedure: as §1
In the dog study, male non-naïve beagle dogs (3 per route) housed at Agilux Laboratories (Worcester, MA) and weighing between 9-14 kg received either an oral or intravenous dose. Oral doses were delivered into the stomach using a syringe and gavage tube followed by a water flush of approximately 10 mL. Oral doses were administered at a volume of 2 mL/kg. Intravenous doses were administered via a percutaneous catheter placed in sphenous vein followed by a saline flush of approximately 3 mL. Intravenous doses were administered at a volume of 0.5 mL/kg. […] Serial blood samples were harvested via direct venipuncture at 3 min, 15 min, 30 min, 1 h, 2 h, 4 h, 6 h, 8 h, 12 h, and 24 h post-dose. All samples were collected manually into microtainer tubes containing EDTA as the anticoagulant and were processed to plasma by refrigerated centrifugation.
as §2, §3

T1 sequence (P08473 whole entry): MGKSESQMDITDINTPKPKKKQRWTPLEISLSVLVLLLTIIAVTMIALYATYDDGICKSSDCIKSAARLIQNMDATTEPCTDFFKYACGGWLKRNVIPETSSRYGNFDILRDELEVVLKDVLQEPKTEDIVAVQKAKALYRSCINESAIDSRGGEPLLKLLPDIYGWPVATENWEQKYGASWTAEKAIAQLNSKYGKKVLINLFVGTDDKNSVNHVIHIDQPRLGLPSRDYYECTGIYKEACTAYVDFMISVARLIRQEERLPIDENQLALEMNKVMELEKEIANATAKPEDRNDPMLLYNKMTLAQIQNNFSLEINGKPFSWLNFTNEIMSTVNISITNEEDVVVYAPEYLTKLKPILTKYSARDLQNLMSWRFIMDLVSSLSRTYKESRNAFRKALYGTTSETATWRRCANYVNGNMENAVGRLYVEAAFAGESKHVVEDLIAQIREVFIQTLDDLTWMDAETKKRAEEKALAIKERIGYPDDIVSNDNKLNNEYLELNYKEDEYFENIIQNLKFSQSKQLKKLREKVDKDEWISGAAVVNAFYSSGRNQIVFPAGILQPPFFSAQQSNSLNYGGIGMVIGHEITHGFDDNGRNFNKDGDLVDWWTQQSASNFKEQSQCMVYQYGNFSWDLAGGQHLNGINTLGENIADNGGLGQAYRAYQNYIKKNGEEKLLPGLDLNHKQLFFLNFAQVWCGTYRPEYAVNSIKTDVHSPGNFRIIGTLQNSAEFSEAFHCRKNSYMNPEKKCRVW

CCOC[C@](C)(C[C@@H](Cc1ccc(-c2cc(Cl)ccc2F)cc1)NC(=O)c1cc(O)no1)C(=O)O [Compound I, (2S,4R)-5-(5′-Chloro-2′-fluoro-[1,1′-biphenyl]-4-yl)-2-(ethoxymethyl)-4-(3-hydroxyisoxazole-5-carboxamido)-2-methylpentanoic Acid]
time window of the highest cGMP levels (NEP [1]; healthy subjects, after a single dose): 8 to 12 h | dose levels at which plasma cGMP dose response shows near maximal effect (NEP [1]; healthy subjects, single dose): ≥ 100 mg | change in mean plasma cGMP from baseline (NEP [1]; healthy subjects, single dose 50-600 mg, over 24 hours): sustained increase in mean plasma cGMP over 24-hours | cGMP in plasma and urine (NEP [1]; human, SAD clinical trial, over 24h): sustained elevations of cGMP over 24h in both plasma and urine | AUC(0-t) ([2]; male, Sprague-Dawley, IV, 0.5 mg/kg): 390 ng·h/mL | AUC(0-t) ([2]; male, Sprague-Dawley, PO, 0.5 mg/kg): 130 ng·h/mL | bioavailability ([2]; male, Sprague-Dawley, 0.5 mg/kg, read-out: Oral Bioavailability Mean): ~33% | CLlast Mean ([2]; IV, 0.5 mg/kg): 20.3 mL/min/kg | CLlast Mean ([2]; PO, 0.5 mg/kg): 50.2 mL/min/kg | bioavailability ([2]; higher doses (30-1000 mg/kg), data not shown, read-out: mean bioavailability): 49 to 79% | change in mean plasma cGMP from baseline (NEP [3]): sustained increase in mean plasma cGMP over 24 h | CLlast Mean ([4]; PO, 0.1 mg/kg): 47.2 mL/min/kg | bioavailability ([4]; higher doses (100-300 mg/kg), data not shown, read-out: mean bioavailability): 7 to 13% | bioavailability ([4]; male, beagle, 0.1 mg/kg, read-out: Oral Bioavailability Mean): ~17% | AUC(0-t) ([4]; male, beagle, IV, 0.1 mg/kg): 210 ng·h/mL | AUC(0-t) ([4]; male, beagle, PO, 0.1 mg/kg): 34.9 ng·h/mL
